Laboratory results as given in PMC7321218, “Synthetic (E)-3-Phenyl-5-(phenylamino)-2-styryl-1,3,4-thiadiazol-3-ium Chloride Derivatives as Promising Chemotherapy Agents on Cell Lines Infected with HTLV-1” (Molecules, 2020).

Legend:
[1] = tested on: MT2 cells (HTLV-1-infected cell line); assay: MTT cell viability assay, MT2 cells; assay type: cell-based; conditions: Homo sapiens, 72 h incubation
Procedure: (§1) The 1 × 10^5 cells/mL were incubated with or without compounds 5a, 5b, 5c, 5d or DMSO (Sigma-Aldrich/Merck, St. Louis, MO, USA) at 37 °C in humidified atmosphere with a 5% CO2. After 72 h, the cellular viability was assessed using 5 mg/mL of 3-(4,5-dimethylthiazol-2-yl)-2,5-diphenyltetrazolium bromide (MTT, Sigma-Aldrich/Merck). Cells were incubated for 3 h, centrifuged, and formazan crystal was dissolved with DMSO. Plates were read on a Paradigma® spectrofluorometer (Molecular Devices, San Jose, CA, USA) at a 490 nm wavelength. Cell death was also evaluated using Propidium Iodide (Biolegend) exclusion after a 24 h culture under the same conditions described above. The fluorescence was examined by FACSCalibus flow cytometry (BD) and 10,000 events were acquired for the experimental data. Analysis was accomplished using Summit V4.0 or FlowJo software (Becton, Dickingson and Company, Santa Barbara, CA, USA).
(§2) Statistical analysis was performed by one-way analysis of variance (ANOVA) and means were compared using a Tukey post-test. The IC50 values were obtained using nonlinear regression. Data were analyzed using GraphPad Prism-5 software (GraphPad software, San Diego, CA, USA), and p ≤ 0.05 was considered statistically significant.

[2] = tested on: C91/PL cells (HTLV-1-infected); assay: MTT cell viability assay, C91/PL cells; assay type: cell-based; conditions: 72 h incubation
Procedure: as §1, §2

Jurkat cells = assay: MTT cell viability assay, Jurkat cells; assay type: cell-based; conditions: Homo sapiens, 72 h incubation
Procedure: as §1, §2

[3] = molecular target: T1, human serum albumin (HSA) (Homo sapiens, UniProt P02768); assay: Steady-state fluorescence quenching of HSA; assay type: binding; conditions: for Kd: Ka (modified Stern–Volmer binding constant); for ΔS°: van't Hoff, 296–310 K
T1 construct: three analogous domains (I, II, and III) having amino acid residues of 1–195, 196–383, and 384–585
T1 sequence (P02768 25-609): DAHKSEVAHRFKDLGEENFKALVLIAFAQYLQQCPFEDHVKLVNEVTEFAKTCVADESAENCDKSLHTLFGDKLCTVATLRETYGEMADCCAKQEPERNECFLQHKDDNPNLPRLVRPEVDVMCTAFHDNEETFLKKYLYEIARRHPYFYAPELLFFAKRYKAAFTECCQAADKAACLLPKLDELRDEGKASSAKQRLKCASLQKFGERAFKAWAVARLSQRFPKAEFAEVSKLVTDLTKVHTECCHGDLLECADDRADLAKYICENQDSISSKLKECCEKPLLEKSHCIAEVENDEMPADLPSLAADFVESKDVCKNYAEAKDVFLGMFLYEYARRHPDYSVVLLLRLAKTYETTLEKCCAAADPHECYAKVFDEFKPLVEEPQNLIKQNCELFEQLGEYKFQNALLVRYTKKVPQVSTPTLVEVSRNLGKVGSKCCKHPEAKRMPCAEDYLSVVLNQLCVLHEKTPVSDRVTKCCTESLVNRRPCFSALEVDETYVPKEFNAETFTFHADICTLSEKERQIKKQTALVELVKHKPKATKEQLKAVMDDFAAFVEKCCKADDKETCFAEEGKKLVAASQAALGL
Procedure: The steady-state fluorescence spectra were measured in the 290–450 nm range, at 296, 303, and 310 K, with the excitation wavelength at λ = 295 nm. To a 3.0 mL solution containing an appropriate concentration of HSA (1.00 × 10^−5 M), successive aliquots from a stock solution of each mesoionic under study (1.00 × 10^−3 M in DMSO) were added, with final concentrations of 0.17, 0.33, 0.50, 0.66, 0.83, 0.99, 1.15, and 1.32 × 10^−5 M. The addition was done manually by using a micro syringe. The inner filter correction for the observed steady-state fluorescence of HSA:mesoionic compounds was done in order to compensate for the absorption value of 5a–d at the excitation and emission wavelengths (295 and 340 nm, respectively) when applying Equation (1):(1) Fcor=Fobs10^[Aexc+Aem/2] where Fcor and Fobs are the corrected and observed steady-state fluorescence intensity values, respectively, while Aex and Aem represent absorbance values for each ligand at the excitation and emission wavelengths (λ = 295 and 340 nm, respectively).
The binding properties of each ligand toward HSA—Stern–Volmer quenching constant (KSV), bimolecular quenching rate constant (kq), modified Stern–Volmer binding constant (Ka), enthalpy change (ΔH°), entropy change (ΔS°), and Gibbs’ free energy change (ΔG°)—were calculated from the steady-state fluorescence quenching data according to Equations (2)–(5):(2) F0/F=1+kqτ0[Q]=1+KSV[Q] (3) F0/F0−F=1/f[Q]Ka+1/f (4) lnKa=−ΔH^0/RT+ΔS^0/R (5) ΔG^0=ΔH^0−TΔS^0 where F0 and F are the steady-state fluorescence intensities of HSA in the absence and presence of mesoionics, respectively. [Q] and τ0 are the ligand concentration and fluorescence lifetime, respectively, of the fluorophore in the absence of quencher (5.54 × 10^−9 s—experimental data, see Section 2.3.1). T, ƒ, and R are the temperature (296, 303, and 310 K), fraction of the initial fluorescence intensity that corresponds to fluorophore that is accessible to the quencher (f ≈ 1.0), and gas constant (8.3145 J/mol.K), respectively.

[4] = molecular target: T1, human serum albumin (HSA); assay: Time-resolved fluorescence decay of HSA; assay type: binding; conditions: HSA 1.00 × 10^−5 M with 1.32 × 10^−5 M compound, ca 298 K
Procedure: The time-resolved fluorescence decay of a 3.0 mL solution of HSA (1.00 × 10^−5 M, in phosphate buffer solution-PBS) was measured in the absence and presence of the maximum concentration of each mesoionic used in the steady-state fluorescence studies (1.32 × 10^−5 M) at room temperature (ca 298 K).

[5] = molecular target: T1, human serum albumin (HSA); assay: Circular dichroism of HSA (secondary structure); assay type: binding; conditions: CD, 310 K, 1.32 × 10^−5 M compound; for α-helix % of HSA at 222 nm: HSA alone 80.1%; for α-helix % of HSA at 208 nm: HSA alone 86.7%
Procedure: The CD spectra were recorded in the 200–250 nm range at 310 K for free serum albumin (1.00 × 10^−6 M) and for HSA with the higher concentration of each mesoionic used in the steady-state fluorescence studies (1.32 × 10^−5 M). Each spectrum was taken on the average of three scans. The obtained data were further converted into mean residue ellipticity (MRE) according to Equation (6):(6) MRE=θ/(10.n.l.Cp) where θ is the observed ellipticity (mdeg); n is the number of amino acid residues (585 to HSA), l is the length of the optical cuvette (1.0 cm), and Cp is the molar concentration of HSA (1.00 × 10^−6 M). The 5a–d induced helical content perturbation at 208 and 222 nm were calculated using Equation (7):(7) (A) α−helix%(−MRE208−4000)/(33000−4000)×100(B) α−helix%(−MRE222−2340)/(30300)×100 where MRE208 and MRE222 are the significant molar residual ellipticities (deg.cm^2/dmol) at 208 nm and 222 nm, respectively.

[6] = molecular target: T1, human serum albumin (HSA); assay: Zeta potential of HSA (surface perturbation); assay type: binding; conditions: for ζ (zeta potential of HSA): HSA with 1.32 × 10^−5 M compound, HSA alone −9.15 ± 1.79; for Conductance: ZP measurement, HSA with compound
Procedure: All zeta potential (ZP) measurements were performed with 10 runs at 298 K and results were reported in terms of ZP ± SD. The ZP was measured for the HSA solution (1.0 × 10^−5 M in PBS solution) without and in the presence of the mesoionic compounds at the maximum concentration used in the steady-state fluorescence experiments (1.32 × 10^−5 M) at room temperature (ca. 298 K).

Row | Compound | IC50 [1] [µM] | IC50 [2] [µM] | IC50 (Jurkat cells) [µM] | KSV (Stern–Volmer quenching constant) ([3]; 296 K) | kq (bimolecular quenching rate constant) ([3]; 296 K) [M⁻¹ s⁻¹] | ΔG° ([3]; 296 K) [kJ/mol] | KSV (Stern–Volmer quenching constant) ([3]; 303 K) | kq (bimolecular quenching rate constant) ([3]; 303 K) [M⁻¹ s⁻¹] | ΔG° ([3]; 303 K) [kJ/mol] | KSV (Stern–Volmer quenching constant) ([3]; 310 K) | kq (bimolecular quenching rate constant) ([3]; 310 K) [M⁻¹ s⁻¹] | ΔG° ([3]; 310 K) [kJ/mol] | Kd ([3]; 296 K) [µM] | Kd ([3]; 303 K) [µM] | Kd ([3]; 310 K) [µM] | ΔS° [3] | Relative % of τ1 [4] [%] | Relative % of τ2 [4] [%] | τ1 (HSA fluorescence lifetime) [4] [ns] | τ2 (HSA fluorescence lifetime) [4] [ns] | further results
1 | Clc1ccc(Nc2n[n+](-c3ccccc3)c(/C=C/c3ccccc3)s2)cc1.[Cl-] [5c, (E)-3-Phenyl-5-(4′-chlorophenylamino)-2-styryl-1,3,4-thiadiazol-3-ium chloride] | 6.15 | 4.5 | 5.6 | 1.30 ± 0.03 × 10^5 M^−1 | 2.35e+13 | -28.1 | 1.36 ± 0.04 × 10^5 M^−1 | 2.45e+13 | -28.9 | 1.40 ± 0.03 × 10^5 M^−1 | 2.53e+13 | -29.7 | 11.7 | 11 | 10.4 | 11.6 ± 0.1 × 10^−2 kJ.mol^−1K^−1 | 33.0 | 67.0 | 1.68 ± 0.11 | 5.66 ± 0.16 | α-helix % of HSA at 222 nm [5]: 78.8%; α-helix % of HSA at 208 nm [5]: 83.8%; ζ (zeta potential of HSA) [6]: −8.77 ± 1.52 mV; Conductance [6]: 29,622 µs
2 | Brc1ccc(Nc2n[n+](-c3ccccc3)c(/C=C/c3ccccc3)s2)cc1.[Cl-] [5d, (E)-3-Phenyl-5-(4′-bromophenylamino)-2-styryl-1,3,4-thiadiazol-3-ium chloride] | 7.7 | 5.25 | 2.27 | 1.45 ± 0.02 × 10^5 M^−1 | 2.61e+13 | -27.9 | 1.54 ± 0.03 × 10^5 M^−1 | 2.79e+13 | -28.7 | 1.60 ± 0.03 × 10^5 M^−1 | 2.89e+13 | -29.4 | 11.5 | 11.1 | 10.8 | 10.6 ± 0.1 × 10^−2 kJ.mol^−1K^−1 | 29.8 | 70.2 | 1.65 ± 0.10 | 5.37 ± 0.13 | α-helix % of HSA at 222 nm [5]: 77.7%; α-helix % of HSA at 208 nm [5]: 82.0%; ζ (zeta potential of HSA) [6]: −8.69 ± 1.50 mV; Conductance [6]: 29,638 µs
3 | Cc1ccc(Nc2n[n+](-c3ccccc3)c(/C=C/c3ccccc3)s2)cc1.[Cl-] [5a, (E)-3-Phenyl-5-(4′-methylphenylamino)-2-styryl-1,3,4-thiadiazol-3-ium chloride] | 1.51 | 2.82 | 2.15 | 1.19 ± 0.03 × 10^5 M^−1 | 2.15e+13 | -27.7 | 1.20 ± 0.03 × 10^5 M^−1 | 2.16e+13 | -28.3 | 1.21 ± 0.03 × 10^5 M^−1 | 2.18e+13 | -28.9 | 13 | 13.3 | 13.7 | 8.46 ± 0.05 × 10^−2 kJ.mol^−1K^−1 | 26.4 | 73.6 | 1.61 ± 0.13 | 5.38 ± 0.13 | α-helix % of HSA at 222 nm [5]: 78.5%; α-helix % of HSA at 208 nm [5]: 84.0%; ζ (zeta potential of HSA) [6]: −8.62 ± 1.40 mV; Conductance [6]: 29,615 µs
